These compounds were tested against human DPP1 enzyme (Homo sapiens (Human), UniProt P53634) (assay: Activity on human recombinant DPP1 isolated enzyme assay (H-Gly-Arg-AMC cleavage, fluorescence)). Conditions: 0.35 nM human DPP1, 300 μM H-Gly-Arg-AMC, 30 min pre-incubation at 25° C., pH 5.0.
Assay type: biochemical
Description: Human DPP1 enzyme activity was determined by measuring release of the fluorophore aminomethyl coumarin (AMC) following enzymatic cleavage of the dipeptide substrate H-Gly-Arg-AMC. Assays were performed in black 384 well plates in 25 mM piperazine buffer, pH 5.0, containing 50 mM NaCl, 0.01% (v/v) Triton X100, 5 mM DTT with 0.35 nM human DPP1 enzyme, 300 μM H-Gly-Arg-AMC substrate (˜Km concentration) and test compounds at 0.51-10000 nM concentration range. Human DPP1 was pre-incubated with test compounds for 30 minutes at 25° C. prior to substrate incubation for a further 40 minutes at 25° C. Enzyme activity was determined by measuring fluorescence of the AMC product at excitation and emission wavelengths of 380 nm and 460 nm using a BMG LABTECH PHERA star plate reader. Test compound potencies are reported in Table 15 as pIC50 values generated from 4-parameter sigmoidal curve fitting of the measured concentration-inhibition responses.

Chain of human DPP1 enzyme (P53634 231-394): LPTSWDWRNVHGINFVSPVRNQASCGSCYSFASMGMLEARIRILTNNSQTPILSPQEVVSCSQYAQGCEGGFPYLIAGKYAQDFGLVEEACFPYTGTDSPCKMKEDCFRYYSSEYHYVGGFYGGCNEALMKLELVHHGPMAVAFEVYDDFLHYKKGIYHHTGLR
Chain of human DPP1 enzyme (P53634 25-134): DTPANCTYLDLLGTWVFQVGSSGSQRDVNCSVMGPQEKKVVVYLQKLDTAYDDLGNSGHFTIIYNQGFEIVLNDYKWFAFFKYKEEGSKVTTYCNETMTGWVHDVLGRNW
Chain of human DPP1 enzyme (P53634 395-463): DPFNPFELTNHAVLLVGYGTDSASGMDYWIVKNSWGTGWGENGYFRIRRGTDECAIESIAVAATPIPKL

SMILES | h DPP1 pIC50
N#C[C@H](Cc1ccc(-c2ccc3c(c2)C2(CCN(C4COC4)CC2)OC3)cc1F)NC(=O)C1(C(F)F)CNC1 [Example 15, (S)-N-(1-cyano-2-(2-fluoro-4-(1′-(oxetan-3-yl)-3H-spiro[isobenzofuran-1,4′-piperidin]-6-yl)phenyl)ethyl)-3-(difluoromethyl)azetidine-3-carboxamide] | ++++ (h DPP1 pIC50 higher than 8)
CN1C(=O)Cc2ccc(-c3ccc(C[C@@H](C#N)NC(=O)C4(C(F)F)CNC4)c(F)c3)cc21 [Example 16, (S)-N-(1-cyano-2-(2-fluoro-4-(1-methyl-2-oxoindolin-6-yl)phenyl)ethyl)-3-(difluoromethyl)azetidine-3-carboxamide] | ++++ (h DPP1 pIC50 higher than 8)
COC1(C(=O)N[C@H](C#N)Cc2ccc(-c3ccc(C#N)cc3)cc2)CN(C)C1 [Example 24, (S)-N-(1-cyano-2-(4′-cyano-[1,1′-biphenyl]-4-yl)ethyl)-3-methoxy-1-methylazetidine-3-carboxamide] | ++++ (h DPP1 pIC50 higher than 8)
COC1(C(=O)N[C@H](C#N)Cc2ccc(-c3ccc4oc(=O)n(C)c4c3)cc2F)CNC1 [Example 36, (S)-N-(1-cyano-2-(2-fluoro-4-(3-methyl-2-oxo-2,3-dihydrobenzo[d]oxazol-5-yl)phenyl)ethyl)-3-methoxyazetidine-3-carboxamide] | ++++ (h DPP1 pIC50 higher than 8)
COC1(C(=O)N[C@H](C#N)Cc2ccc(-c3ccc4oc(=O)n(C)c4c3)cc2F)CN(C)C1 [Example 37, (S)-N-(1-cyano-2-(2-fluoro-4-(3-methyl-2-oxo-2,3-dihydrobenzo[d]oxazol-5-yl)phenyl)ethyl)-3-methoxy-1-methylazetidine-3-carboxamide] | ++++ (h DPP1 pIC50 higher than 8)
COC1(C(=O)N[C@H](C#N)Cc2ccc(-c3ccc(C#N)cc3)cc2F)CN(C)C1 [Example 41, (S)-N-(1-cyano-2-(4′-cyano-3-fluoro-[1,1′-biphenyl]-4-yl)ethyl)-3-methoxy-1-methylazetidine-3-carboxamide] | ++++ (h DPP1 pIC50 higher than 8)
COC1(C(=O)N[C@H](C#N)Cc2ccc(-c3ccc4c(c3)C3(CCN(C5COC5)CC3)OC4)cc2F)CN(C)C1 [Example 47, (S)-N-(1-cyano-2-(2-fluoro-4-(1′-(oxetan-3-yl)-3H-spiro[isobenzofuran-1,4′-piperidin]-6-yl)phenyl)ethyl)-3-methoxy-1-methylazetidine-3-carboxamide] | ++++ (h DPP1 pIC50 higher than 8)
CN1C(=O)Cc2ccc(-c3ccc(C[C@@H](C#N)NC(=O)C4(CF)CNC4)c(F)c3)cc21 [Example 48, (S)-N-(1-cyano-2-(2-fluoro-4-(1-methyl-2-oxoindolin-6-yl)phenyl)ethyl)-3-(fluoromethyl)azetidine-3-carboxamide] | ++++ (h DPP1 pIC50 higher than 8)
COC1(C(=O)N[C@H](C#N)Cc2ccc(-c3ccc4c(c3)N(C)C(=O)C4)cc2F)CNC1 [Example 49, (S)-N-(1-cyano-2-(2-fluoro-4-(1-methyl-2-oxoindolin-6-yl)phenyl)ethyl)-3-methoxyazetidine-3-carboxamide] | ++++ (h DPP1 pIC50 higher than 8)
COC1(C(=O)N[C@H](C#N)Cc2ccc(-c3ccc4c(c3)N(C)C(=O)C4)cc2F)CN(C)C1 [Example 50, (S)-N-(1-cyano-2-(2-fluoro-4-(1-methyl-2-oxoindolin-6-yl)phenyl)ethyl)-3-methoxy-1-methylazetidine-3-carboxamide] | ++++ (h DPP1 pIC50 higher than 8)

Same assay, conditions: 0.35 nM human DPP1, 300 μM H-Gly-Arg-AMC, 30 min pre-incubation at 25° C., pH 5.0; read-out: h DPP1 pIC50 (converted)

SMILES | IC50 [nM]
N#Cc1ccc(-c2ccc(C[C@@H](C#N)NC(=O)C3(C(F)F)CNC3)c(F)c2)cc1 [Example 13, (S)-N-(1-cyano-2-(4′-cyano-3-fluoro-[1,1′-biphenyl]-4-yl)ethyl)-3-(difluoromethyl)azetidine-3-carboxamide] | 10 to 100
Cn1c(=O)oc2ccc(-c3ccc(C[C@@H](C#N)NC(=O)C4(C(F)F)CNC4)cc3)cc21 [Example 14, (S)-N-(1-cyano-2-(4-(3-methyl-2-oxo-2,3-dihydrobenzo[d]oxazol-5-yl)phenyl)ethyl)-3-(difluoromethyl)azetidine-3-carboxamide] | 10 to 100
N#Cc1ccc(-c2ccc(C[C@@H](C#N)NC(=O)C3(C(F)(F)F)CNC3)cc2)cc1 [Example 17, (S)-N-(1-cyano-2-(4′-cyano-[1,1′-biphenyl]-4-yl)ethyl)-3-(trifluoromethyl)azetidine-3-carboxamide] | 10 to 100
CSC1(C(=O)N[C@H](C#N)Cc2ccc(-c3ccc(C#N)cc3)cc2)CNC1 [Example 18, (S)-N-(1-cyano-2-(4′-cyano-[1,1′-biphenyl]-4-yl)ethyl)-3-(methylthio)azetidine-3-carboxamide] | 10 to 100
N#Cc1ccc(-c2ccc(C[C@@H](C#N)NC(=O)C3(Cc4ccccc4)CNC3)cc2)cc1 [Example 20, (S)-3-benzyl-N-(1-cyano-2-(4′-cyano-[1,1′-biphenyl]-4-yl)ethyl)azetidine-3-carboxamide] | 1000 to 10000
N#Cc1ccc(-c2ccc(C[C@@H](C#N)NC(=O)C3(Oc4ccccc4)CNC3)cc2)cc1 [Example 21, (S)-N-(1-cyano-2-(4′-cyano-[1,1′-biphenyl]-4-yl)ethyl)-3-phenoxyazetidine-3-carboxamide] | 1000 to 10000
COC1(C(=O)N[C@H](C#N)Cc2ccc(-c3ccc4c(c3)N(C)C(=O)C4)cc2)CNC1 [Example 22, (S)-N-(1-cyano-2-(4-(1-methyl-2-oxoindolin-6-yl)phenyl)ethyl)-3-methoxyazetidine-3-carboxamide] | 10 to 100
N#Cc1ccc(-c2ccc(C[C@@H](C#N)NC(=O)C3CN(C4COC4)C3)cc2)cc1 [Example 23, (S)-N-(1-cyano-2-(4′-cyano-[1,1′-biphenyl]-4-yl)ethyl)-1-(oxetan-3-yl)azetidine-3-carboxamide] | 1000 to 10000
CC(C)OC1(C(=O)N[C@H](C#N)Cc2ccc(-c3ccc(C#N)cc3)cc2)CNC1 [Example 26, (S)-N-(1-cyano-2-(4′-cyano-[1,1′-biphenyl]-4-yl)ethyl)-3-isopropoxyazetidine-3-carboxamide] | 1000 to 10000
COC1(C(=O)N[C@H](C#N)Cc2ccc(-c3ccc(C#N)cc3)cc2)CN(C2COC2)C1 [Example 29, (S)-N-(1-cyano-2-(4′-cyano-[1,1′-biphenyl]-4-yl)ethyl)-3-methoxy-1-(oxetan-3-yl)azetidine-3-carboxamide] | 100 to 1000
COC1(C(=O)N[C@H](C#N)Cc2ccc(-c3ccc(C#N)cc3)cc2)CN(C(C)C)C1 [Example 30, (S)-N-(1-cyano-2-(4′-cyano-[1,1′-biphenyl]-4-yl)ethyl)-1-isopropyl-3-methoxyazetidine-3-carboxamide] | 1000 to 10000
COC1(C(=O)N[C@H](C#N)Cc2ccc(-c3ccc(C#N)cc3)cc2)CNC1C (stereo partly drawn) [Example 31, N-((S)-1-cyano-2-(4′-cyano-[1,1′-biphenyl]-4-yl)ethyl)-3-methoxy-2-methylazetidine-3-carboxamide] | 100 to 1000
CN1CC(C(=O)N[C@H](C#N)Cc2ccc(-c3ccc(C#N)cc3)cc2)(C(F)F)C1 [Example 35, (S)-N-(1-cyano-2-(4′-cyano-[1,1′-biphenyl]-4-yl)ethyl)-3-(difluoromethyl)-1-methylazetidine-3-carboxamide] | 100 to 1000
CN1CC(O)(C(=O)N[C@H](C#N)Cc2ccc(-c3ccc(C#N)cc3)cc2)C1 [Example 38, (S)-N-(1-cyano-2-(4′-cyano-[1,1′-biphenyl]-4-yl)ethyl)-3-hydroxy-1-methylazetidine-3-carboxamide] | 10 to 100
CN1CC(C(=O)N[C@H](C#N)Cc2ccc(-c3ccc4c(c3)C3(CCN(C5COC5)CC3)OC4)cc2F)(C(F)F)C1 [Example 39, (S)-N-(1-cyano-2-(2-fluoro-4-(1′-(oxetan-3-yl)-3H-spiro[isobenzofuran-1,4′-piperidin]-6-yl)phenyl)ethyl)-3-(difluoromethyl)-1-methylazetidine-3-carboxamide] | 10 to 100
CN1CC(C(=O)N[C@H](C#N)Cc2ccc(-c3ccc(C#N)cc3)cc2F)(C(F)F)C1 [Example 40, (S)-N-(1-cyano-2-(4′-cyano-3-fluoro-[1,1′-biphenyl]-4-yl)ethyl)-3-(difluoromethyl)-1-methylazetidine-3-carboxamide] | 10 to 100
COC1(C(=O)NC(C#N)Cc2ncc(-c3ccc(C#N)cc3)cc2F)CNC1 (stereo not drawn) [Example 42, N-(1-cyano-2-(5-(4-cyanophenyl)-3-fluoropyridin-2-yl)ethyl)-3-methoxyazetidine-3-carboxamide] | 100 to 1000
CCCN1CC(OC)(C(=O)N[C@H](C#N)Cc2ccc(-c3ccc(C#N)cc3)cc2)C1 [Example 46, (S)-N-(1-cyano-2-(4′-cyano-[1,1′-biphenyl]-4-yl)ethyl)-3-methoxy-1-propylazetidine-3-carboxamide] | 1000 to 10000
COC1(C(=O)N[C@H](C#N)Cc2ccc(-c3ccc(C#N)cc3)cc2)CN(CC(C)C)C1 [Example 51, (S)-N-(1-cyano-2-(4′-cyano-[1,1′-biphenyl]-4-yl)ethyl)-1-isobutyl-3-methoxyazetidine-3-carboxamide] | 1000 to 10000
CCN1CC(OC)(C(=O)N[C@H](C#N)Cc2ccc(-c3ccc(C#N)cc3)cc2)C1 [Example 52, (S)-N-(1-cyano-2-(4′-cyano-[1,1′-biphenyl]-4-yl)ethyl)-1-ethyl-3-methoxyazetidine-3-carboxamide] | 100 to 1000

From patent US20250250232A1, “AZETIDINE DERIVATIVES AND USE THEREOF AS DIPEPTIDYL PEPTIDASE 1 INHIBITORS” (CHIESI FARMACEUTICI S.P.A., priority 2022, published 2025)
